The test system of one experiment is S. aureus ATCC. More on the design: method as in Bravo et al., 2005. The note with it: 250 µg/ml; ref Bravo et al., 2005; cited from earlier work.
The next experiment deals with bacterial growth. More on the design: method as in Bravo et al., 2005. The note with it: high concentrations (1,000 µg/ml); ref Bravo et al., 2005; cited from earlier work.
In the next experiment the test system is A. tumefaciens. Description: Antibacterial MIC, broth microdilution, phytopathogens. The experiment is classed as cell-based. The note with it: Agrobacterium tumefaciens; GN A. tumefaciens; 24 h; tested 12.5 to 1,600 µg/ml; read-out: Minimum inhibitory concentration (MIC). Here is the method:
(§1) The minimum inhibitory concentrations (MIC) were determined using the broth microdilution method ([Díaz et al., 2018]). Two-fold serial dilutions were added to the wells of sterile 96-well plates containing inoculated BBL™ Mueller Hinton II Broth medium suspensions of bacterial cells (1.0 x10^5 UFC/ml) of Agrobacterium tumefaciens and Bacillus subtilis. The final concentrations ranged from 12.5 to 1,600 µg/ml. Ethanol (1%) was used as the negative control and chloramphenicol (CALBIOCHEM; U.S. and Canada) was used as the positive control against both bacteria. MICs were determined according to the OD600 obtained in a Thermo Scientific Multiskan GO 96-well plate photometer. […] Assays were done in triplicate.

The test system of a further experiment is B. subtilis. Described as above. The experiment is classed as cell-based. The note with it: Bacillus subtilis; GP B. subtilis; 24 h; tested 12.5 to 1,600 µg/ml; read-out: Minimum inhibitory concentration (MIC). The method, then:
as §1

Converted amounts (≈) assume the structure as drawn.

`O=C(O)c1cc(O)c(O)c(O)c1` [gallic acid]: the “inhibition activity of S. aureus ATCC” value in the experiment on S. aureus ATCC is reported as 67.2%. Further, in the experiment on bacterial growth, the “inhibitory activity of bacterial growth” value is “inhibitory activity”.
For the compound `O=C(N[C@H](CO)[C@H](O)c1ccc([N+](=O)[O-])cc1)C(Cl)Cl` [Chloramphenicol], the MIC with A. tumefaciens and in the experiment on B. subtilis was 12.5 µg/mL (≈ 38.7 µM) each time.
